According to paper PMC12197275, “Preclinical Pharmacokinetic Evaluation of Mithramycin and Mithramycin SA Tryptophan-Conjugated Analog” (Pharmaceutics, 2025):
Where two headings read alike, the source gives them in different places.

Assays:
[1] = cited from earlier work
[2] = Cassette microdose plasma PK in male Sprague Dawley rats, 28 µg/kg (Study 6)
Experimental: (§1) All samples were processed and analyzed by LC-MS/MS using a bioanalytical method validated according to the FDA’s Bioanalytical Guidance, essentially as described by Eckenrode et al. with some modifications [15]. […] Plasma samples above the calibration curve range were diluted, along with quality control (QC) samples, and values were accepted when the interpolated concentrations were within 15% of the nominal values. The expected % recovery for both compounds was >90% [15, 16]. Analyte separation and detection were performed on a Sciex Exion HPLC system equipped with a C18 analytical column (Phenomenex Synergi 4 µm Fusion-RP 80A; 50 mm × 2 mm with a guard column) and coupled to a hybrid triple-quadrupole/linear ion trap mass spectrometer (Sciex QTrap 6500+ or 7500+, Framingham, MA, USA). A 0.6 mL/min gradient of 0.005% formic acid in water and 0.005% formic acid in acetonitrile was used to elute the analytes within a 5 min time window. […] The internal standard was the MTM oxime–tryptophan [5]. The instruments were controlled and the data were integrated and processed using Sciex OS software version 3.3.1.43.
(§2) Only concentrations above the limit of quantification were used for NCA. The linear-up log-down trapezoidal integration method was used to estimate the area under the curve from time zero to the last measurable concentration–time point (AUClast). The terminal elimination rate constant (ke) was estimated by log-linear regression using the last three data points of the concentration–time profiles.

[3] = tested on: plasma from athymic nude (nu/nu) mice; test: Plasma protein binding by rapid equilibrium dialysis, mouse plasma; conditions: for Fraction Unbound (%): athymic nude mouse plasma
Experimental: (§3) Protein binding was assessed in plasma derived from athymic nude (nu/nu) mice, Sprague Dawley rats, Cynomolgus monkeys, and humans. Plasma from athymic nude mice and Sprague Dawley rats was collected from animals housed locally. […] Plasma was collected by centrifuging the whole blood immediately upon collection, stored at 4 °C, and used within one week of storage for protein binding studies. The plasma was spiked with the compound to prepare 1, 3, and 10 µM final concentrations (0.1% DMSO (v/v)). Spiked plasma (100 µL) and PBS (350 µL) were placed in their respective chambers in the Pierce™ RED Device (12K MWCO; Linden Bioscience, Research Triangle Park, NC, USA) and incubated in a Talboys microplate shaker at 37 °C and 250 rpm for 4 h to achieve equilibrium. Post-dialysis samples were collected from the plasma and buffer chambers, matrix-matched with PBS and plasma, respectively, and analyzed by LC-MS/MS as detailed below. The experiments were performed in triplicate, and the unbound percentage was calculated based on the following equation [13]: fu=PBS chamber area ratio/Plasma chamber area ratio;Area ratio=analyte area/ISTD area
(§4) All samples were processed and analyzed by LC-MS/MS using a bioanalytical method validated according to the FDA’s Bioanalytical Guidance, essentially as described by Eckenrode et al. with some modifications [15]. […] Plasma samples above the calibration curve range were diluted, along with quality control (QC) samples, and values were accepted when the interpolated concentrations were within 15% of the nominal values. […] Analyte separation and detection were performed on a Sciex Exion HPLC system equipped with a C18 analytical column (Phenomenex Synergi 4 µm Fusion-RP 80A; 50 mm × 2 mm with a guard column) and coupled to a hybrid triple-quadrupole/linear ion trap mass spectrometer (Sciex QTrap 6500+ or 7500+, Framingham, MA, USA). A 0.6 mL/min gradient of 0.005% formic acid in water and 0.005% formic acid in acetonitrile was used to elute the analytes within a 5 min time window. […] The internal standard was the MTM oxime–tryptophan [5]. The instruments were controlled and the data were integrated and processed using Sciex OS software version 3.3.1.43.

[4] = tested on: plasma from Cynomolgus monkeys; test: Plasma protein binding by rapid equilibrium dialysis, monkey plasma; conditions: Cynomolgus macaque plasma
Experimental: as §3
(§5) All samples were processed and analyzed by LC-MS/MS using a bioanalytical method validated according to the FDA’s Bioanalytical Guidance, essentially as described by Eckenrode et al. with some modifications [15]. […] Plasma samples above the calibration curve range were diluted, along with quality control (QC) samples, and values were accepted when the interpolated concentrations were within 15% of the nominal values. […] Analyte separation and detection were performed on a Sciex Exion HPLC system equipped with a C18 analytical column (Phenomenex Synergi 4 µm Fusion-RP 80A; 50 mm × 2 mm with a guard column) and coupled to a hybrid triple-quadrupole/linear ion trap mass spectrometer (Sciex QTrap 6500+ or 7500+, Framingham, MA, USA). A 0.6 mL/min gradient of 0.005% formic acid in water and 0.005% formic acid in acetonitrile was used to elute the analytes within a 5 min time window. […] The internal standard was the MTM oxime–tryptophan [5]. […]

[5] = Plasma PK in male Sprague Dawley rats, IV bolus 0.5 mg/kg (Study 2); conditions: male rat, 0.5 mg/kg IV bolus
Experimental: Rat PK studies were conducted using male Sprague Dawley rats (Study 2; Table 1). […] Blood samples were collected at three different time points by saphenous bleeding. The collection time points were at 5 min and 20 min and at 1, 3, 6, and 9 h. The blood samples were processed and stored as described above.
as §1, §2

[6] = tested on: plasma from Sprague Dawley rats; test: Plasma protein binding by rapid equilibrium dialysis, rat plasma
Experimental: as §3, §5

human plasma = test: Plasma protein binding by rapid equilibrium dialysis, human plasma
Experimental: as §3, §4

[7] = Stability of dosing solutions; conditions: […]; 5% Solutol HS-15/95% PBS pH 8)
[8] = parameters: method as in doi:10.1158/1535-7163.TARG-23-B150; conditions: across different multi-day dosing schedules; cited from earlier work
[9] = Plasma PK in male athymic nude mice, IV bolus 2 mg/kg (Study 1); conditions: male mouse, 2 mg/kg IV bolus
Experimental: Four separate PK studies were conducted using nu/nu mice. For studies using destructive sampling, the animals were anesthetized under isoflurane gas and samples were collected through intracardiac puncture in heparinized syringes. […] Blood samples were collected (n = 3 mice/time point) by cardiac puncture at 5 and 30 min and at 1.5, 3, and 6 h. […] Blood samples (n = 3 mice/time point) were collected by cardiac puncture at 5 min, 30 min, 2 h, and 5 h. […] Three groups (n = 9/group) of nu/nu mice were dosed at 0.3 mg/kg, 1 mg/kg, and 3 mg/kg. The mice at each dose level were randomized into three groups of three mice. The sampling time points for the three doses were as follows: 10 min, 20 min, 30 min, 45 min, 1 h, 1.5 h, 2 h, 2.5 h, and 3 h for the 0.3 mg/kg group; 5 min, 15 min, 30 min, 1 h, 2 h, 3 h, 4 h, 6 h, and 8 h for the 1 mg/kg group; and 5 min, 15 min, 30 min, 1 h, 2 h, 4 h, 6 h, 9 h, and 12 h for the 3 mg/kg group. […] Blood samples (n = 2 mice/time point) were collected by cardiac puncture at 10 min, 30 min, 1 h, 3 h, and 6 h. After collection, blood samples were immediately centrifuged at 4000 g for 2 min, and plasma samples were immediately collected and placed on dry ice, followed by storage at −80 °C until analysis.
Plasma samples above the calibration curve range were diluted, along with quality control (QC) samples, and values were accepted when the interpolated concentrations were within 15% of the nominal values.

[10] = male monkey n=1, high microdose cassette: MTM 13.18 µg/kg, MTMSA-Trp 4.19 µg/kg, IV infusion
Experimental: Two separate cassette dosing PK studies were conducted using male cynomolgus monkeys. […] The blood samples were processed and stored as described above.
as §1

[11] = Cassette microdose plasma PK in male athymic nude mice, 69 µg/kg (Study 5)
Experimental: as §1, §2

[12] = female athymic nude mice, 0.3 mg/kg IV bolus
[13] = female athymic nude mice, 1 mg/kg IV bolus
[14] = female athymic nude mice, 3 mg/kg IV bolus
[15] = female athymic nude mice, 5 mg/kg IV bolus
[16] = female athymic nude mice, 10 mg/kg IV bolus
[17] = male rat, 28 µg/kg each, cassette IV bolus
[18] = male mouse, 69 µg/kg each, cassette IV bolus

Compound: CO[C@@H]([C@@H]1Cc2cc3cc(O[C@H]4CC(O[C@H]5CC(O)[C@H](O)C(C)O5)[C@H](O)C(C)O4)c(C)c(O)c3c(O)c2C(=O)[C@H]1O[C@H]1CC(O[C@H]2CC(O[C@H]3CC(O)[C@H](O)C(C)O3)[C@@H](O)C(C)O2)[C@H](O)C(C)O1)[C@@H](O)C(C)=O (some centres unmarked) [EC-8042]
- systemic clearance ([1]; same as MTM): high systemic clearance

Compound: CO[C@H](C(=O)C(C)=O)[C@@H]1Cc2cc3cc(OC4C[C@@H](OC5C[C@@H](O)[C@H](O)C(C)O5)[C@H](O)C(C)O4)c(C)c(O)c3c(O)c2C(=O)[C@H]1OC1C[C@@H](OC2C[C@@H](OC3C[C@](C)(O)[C@H](O)C(C)O3)[C@@H](O)C(C)O2)[C@H](O)C(C)O1 (some centres unmarked) [MTM-SDK]
- systemic clearance ([1]; in vivo): high systemic clearance

Compound: CO[C@H](C(O)C(C)=O)[C@@H]1Cc2cc3cc(OC4C[C@@H](OC5C[C@@H](O)[C@H](O)C(C)O5)[C@H](O)C(C)O4)c(C)c(O)c3c(O)c2C(=O)[C@H]1OC1C[C@@H](OC2C[C@@H](OC3C[C@](C)(O)[C@H](O)C(C)O3)[C@@H](O)C(C)O2)[C@H](O)C(C)O1 (some centres unmarked) [MTM-SK]
- systemic clearance ([1]; in vivo): high systemic clearance

Compound: COC(=O)[C@H](Cc1c[nH]c2ccccc12)NC(=O)[C@H](Cc1ccccc1)NC(=O)CO/N=C(\[C@@H](O)[C@@H](C)O)[C@@H](OC)[C@@H]1Cc2cc3cc(O[C@H]4C[C@@H](O[C@H]5C[C@@H](O)[C@H](O)[C@@H](C)O5)[C@H](O)[C@@H](C)O4)c(C)c(O)c3c(O)c2C(=O)[C@H]1O[C@H]1C[C@@H](O[C@H]2C[C@@H](O[C@H]3C[C@](C)(O)[C@H](O)[C@@H](C)O3)[C@@H](O)[C@@H](C)O2)[C@H](O)[C@@H](C)O1 [MTMox32E]
- systemic clearance ([1]; in vivo): low systemic clearance

Compound: mithramycin SA-Trp [MTMSA-Trp]
- estimated systemic clearance, average (average over 1, 3, 5, and 10 mg/kg, female athymic nude mice): approximately 41 mL/h/kg
- AUC0–inf [12]: 4373 ng·h/mL
- CL [12]: 1.15 mL/min/kg
- Extrapolated AUC0–inf [12]: 0.4%
- Vd [12]: 0.045 L/kg
- t1/2 [12]: 0.5 h
- AUC0–inf [13]: 24,419 ng/mL·h
- CL [13]: 0.683 mL/min/kg
- Extrapolated AUC0–inf [13]: 0.2%
- Vd [13]: 0.075 L/kg
- t1/2 [13]: 1.3 h
- AUC0–inf [14]: 91,778 ng/mL·h
- CL [14]: 0.55 mL/min/kg
- Extrapolated AUC0–inf [14]: 0.2%
- Vd [14]: 0.123 L/kg
- t1/2 [14]: 2.6 h
- CL [15]: 0.6 mL/min/kg
- Extrapolated AUC0–inf [15]: 6.5%
- Vd [15]: 0.08 L/kg
- t1/2 [15]: 1.5 h
- AUC0–inf [16]: 216,281 ng/mL·h
- CL [16]: 0.767 mL/min/kg
- Extrapolated AUC0–inf [16]: 5.6%
- Vd [16]: 0.081 L/kg
- t1/2 [16]: 1.2 h
- linear kinetics range (female athymic nude mice, IV bolus): 1 to 10 mg/kg
- dose proportionality (mice, 1, 3, and 10 mg/kg doses): linear pharmacokinetics
- AUC0–inf [2, 17]: 223 ng·h/mL
- CL [2, 17]: 2.1 mL/min/kg
- Extrapolated AUC0–inf [2, 17]: 8.4%
- Terminal t1/2 [2, 17]: 2.4 h
- Vd [2, 17]: 0.428 L/kg
- change of systemic clearance between microgram- and milligram-level doses ([2]; rats, 28 µg/kg vs 0.5 mg/kg): remained similar
- Fraction Unbound (%) ([3]; 1 µM): <1%
- Fraction Unbound (%) ([3]; 3 µM): <1%
- Fraction Unbound (%) ([3]; 10 µM): <1%
- unbound fraction ([3]; nu/nu mouse plasma, across tested concentrations (1, 3, 10 µM)): < 1%
- Fraction Unbound (%) ([4]; 1 µM): 1.03 ± 0.27%
- Fraction Unbound (%) ([4]; 3 µM): 1.02 ± 0.09%
- Fraction Unbound (%) ([4]; 10 µM): 1.14 ± 0.15%
- AUC0–inf [5]: 3486 ng·h/mL
- CL [5]: 2.38 mL/min/kg
- Extrapolated AUC0–inf [5]: 1.43%
- Terminal t1/2 [5]: 1.56 h
- Vd [5]: 0.324 L/kg
- Fraction Unbound (%) ([6]; 1 µM): 2.41 ± 1.29%
- Fraction Unbound (%) ([6]; 3 µM): 3.85 ± 0.08%
- Fraction Unbound (%) ([6]; 10 µM): 3.88 ± 0.54%
- Fraction Unbound (%) (human plasma; 1 µM): <1%
- Fraction Unbound (%) (human plasma; 3 µM): <1%
- Fraction Unbound (%) (human plasma; 10 µM): <1%
- unbound fraction (human plasma; across tested concentrations): < 1%
- stability of dosing solution following formulation [7]: at least 11 days
- maximum tolerated doses [8]: 1 to 3 mg/kg
- AUC0–inf [9]: 38,564 ng/mL·h
- CL [9]: 0.867 mL/min/kg
- Extrapolated AUC0–inf [9]: 8.07%
- Terminal t1/2 [9]: 1.85 h
- Vd [9]: 0.138 L/kg
- AUC0–inf [10]: 181 ng·h/mL
- CL [10]: 0.383 mL/min/kg
- Extrapolated AUC0–inf [10]: 4.99%
- Terminal t1/2 [10]: 0.78 h
- Vd [10]: 0.026 L/kg
- AUC0–inf [11, 18]: 569 ng·h/mL
- CL [11, 18]: 2.02 mL/min/kg
- Extrapolated AUC0–inf [11, 18]: 3.2%
- Terminal t1/2 [11, 18]: 1.8 h
- Vd [11, 18]: 0.318 L/kg
- change of systemic clearance between microgram- and milligram-level doses ([11]; mice, 69 µg/kg vs 2 mg/kg): approximately 0.4 fold
